Laboratory results taken from patent publication US12030896B2, “PIKfyve inhibitors” (Mayo Foundation for Medical Education and Research, priority 2018, dated 2024).
Where “and” joins values, the source holds several entries; their conditions need not be identical. Identical values can stand only once.

What was measured:
[1] = system: 468 kinases; experiment: Kinase selectivity panel (Treespot dendrogram); assay type: binding
Method: In contrast, 50 nM Apilimod inhibited two kinases to 1% or 10%, and 3 kinases to 35% of control. To examine non-specific binding at higher concentrations, Example 1, Example 3, and Apilimod were tested at 5000 nM. […] PIKfyve is represented at the bottom left of each dendrogram.

[2] = system: U251 glioblastoma cell; experiment: Cell killing in combination with vemurafenib; assay type: cell-based, human; settings: low concentrations of Example 1 (e.g., 0.5 μM) + 10 μM vemurafenib, 72 hour
Method: A 25 mM stock of vemurafenib (obtained from Selleckchem) in DMSO was diluted to 2× the indicated concentration into the cell suspension immediately prior to plating the cell suspension onto the pre-diluted Example 1 or Example 3, to result in a final 1× concentration of both compounds.
See FIG. 13 for showing of U251 glioblastoma cell killing by Example 1 alone or in the presence of 10 μM vemurafenib over a 72 hour time course.

[3] = Pharmacokinetic study of Example 1 in mouse (IV, IP, PO); assay type: in vivo, Male C57BL/6 Mouse; settings: for concentration at 0.25 h / concentration at 0.5 h / concentration at 1 h: male, C57BL/6, mouse, plasma, ip
Method: Species: Male C57BL/6 Mouse, fasted.
PK/PD testing of the compound was performed in mice, after IP, IV, or oral administration.

[4] = IP 30 mg/kg, individual mice M4-M6, 30 mg/kg
[5] = IV 5 mg/kg, individual mice M1-M3, 5 mg/kg
[6] = PO 30 mg/kg, individual mice M7-M9, 30 mg/kg

Cc1ccc(Nc2nc(N/N=C/c3c[nH]c4ccccc34)nc(N3CCOCC3)n2)cc1 [Example 1, (E)-4-(2-((1H-indol-3-yl)methylene)hydrazinyl)-6-morpholino-N-(p-tolyl)-1,3,5-triazin-2-amine]
number of kinases blocked to 1% of control ([1]; 50 nM, 468 kinases): 1
number of kinases blocked to 10% of control ([1]; 50 nM, 468 kinases): did not block other kinases
number of kinases blocked to 35% of control ([1]; 50 nM, 468 kinases): did not block other kinases
number of kinases blocked to 1% activity level ([1]; 5000 nM): 2
number of kinases blocked to 10% activity level ([1]; 5000 nM): 4
number of kinases blocked to 35% activity level ([1]; 5000 nM): 11
selectivity for PIKfyve ([1]; comparison of Example 1, Example 3 and apilimod): more selective
cell killing on addition of vemurafenib [2]: significantly improves cell killing
plasma concentration ([3]; IP 30 mg/kg, 0.250 h, individual mice M4-M6, 30 mg/kg): 299 ng/mL and 314 ng/mL
plasma concentration ([3]; IP 30 mg/kg, 0.500 h, individual mice M4-M6, 30 mg/kg): 430 ng/mL and 376 ng/mL
plasma concentration ([3]; IP 30 mg/kg, 1.00 h, individual mice M4-M6, 30 mg/kg): 636 ng/mL and 492 ng/mL
plasma concentration ([3]; IP 30 mg/kg, 2.00 h, individual mice M4-M6, 30 mg/kg): 441 ng/mL and 523 ng/mL
plasma concentration ([3]; IP 30 mg/kg, 4.00 h, individual mice M4-M6, 30 mg/kg): 232 ng/mL and 158 ng/mL
plasma concentration ([3]; IP 30 mg/kg, 6.00 h, individual mice M4-M6, 30 mg/kg): 115 ng/mL and 103 ng/mL
plasma concentration ([3]; IP 30 mg/kg, 24.0 h, individual mice M4-M6, 30 mg/kg): 34.1 ng/mL and 40.7 ng/mL
Tlast ([3]; IP 30 mg/kg, individual mice M4-M6): 24.0 h
AUC0-last [3, 4]: 3110 ng·h/mL and 2925 ng·h/mL
AUC(0-inf) [3, 4]: 3512 ng·h/mL and 3588 ng·h/mL
AUCExtra [3, 4]: 18.0% and 11.5% and 18.5%
AUMCExtra [3, 4]: 54.7% and 41.4% and 56.7%
Cmax [3, 4]: 636 ng/mL and 523 ng/mL
MRT0-inf [3, 4]: 9.91 h and 13.1 h
MRT0-last [3, 4]: 6.56 h and 6.98 h
T1/2 [3, 4]: 8.19 h and 11.3 h
Tmax [3, 4]: 2.00 h
AUCExtra ([3]; IP 30 mg/kg, mean): 16.0%
AUMCExtra ([3]; IP 30 mg/kg, mean): 50.9%
Tlast ([3]; IP 30 mg/kg, mean): 24.0 h
peak concentration ([3]; IP, single 30 mg/kg dose): 534 ng/mL
plasma concentration ([3]; IV 5 mg/kg, 5 min, individual mice M1-M3, 5 mg/kg): 1500 ng/mL and 2090 ng/mL
plasma concentration ([3]; IV 5 mg/kg, 0.250 h, individual mice M1-M3, 5 mg/kg): 1270 ng/mL and 1530 ng/mL
plasma concentration ([3]; IV 5 mg/kg, 0.500 h, individual mice M1-M3, 5 mg/kg): 1060 ng/mL and 1130 ng/mL
plasma concentration ([3]; IV 5 mg/kg, 1.00 h, individual mice M1-M3, 5 mg/kg): 591 ng/mL and 678 ng/mL
plasma concentration ([3]; IV 5 mg/kg, 2.00 h, individual mice M1-M3, 5 mg/kg): 169 ng/mL and 204 ng/mL
plasma concentration ([3]; IV 5 mg/kg, 4.00 h, individual mice M1-M3, 5 mg/kg): 16.7 ng/mL and 16.4 ng/mL
plasma concentration ([3]; IV 5 mg/kg, 6.00 h, individual mice M1-M3, 5 mg/kg): 4.04 ng/mL and 3.44 ng/mL
plasma concentration ([3]; IV 5 mg/kg, 24.0 h, individual mice M1-M3): BQL
Tlast ([3]; IV 5 mg/kg, individual mice M1-M3): 6.00 h
AUC0-last [3, 5]: 1539 ng·h/mL and 1820 ng·h/mL
AUC(0-inf) [3, 5]: 1543 ng·h/mL and 1823 ng·h/mL
AUCExtra [3, 5]: 0.381% and 0.251% and 0.171%
AUMCExtra [3, 5]: 2.79% and 1.96% and 1.39%
C0 [3, 5]: 1630 ng/mL and 2442 ng/mL
Cl [3, 5]: 54.0 mL/min/kg and 45.7 mL/min/kg
MRT0-inf [3, 5]: 0.890 h and 0.847 h
MRT0-last [3, 5]: 0.875 h and 0.836 h
T1/2 [3, 5]: 0.665 h and 0.628 h
Vdss [3, 5]: 2.89 L/kg and 2.32 L/kg
AUCExtra ([3]; IV 5 mg/kg, mean): 0.268%
AUMCExtra ([3]; IV 5 mg/kg, mean): 2.05%
Tlast ([3]; IV 5 mg/kg, mean): 6.00 h
plasma concentration ([3]; PO 30 mg/kg, 0.250 h, individual mice M7-M9, 30 mg/kg): 59.6 ng/mL and 65.0 ng/mL
plasma concentration ([3]; PO 30 mg/kg, 0.500 h, individual mice M7-M9, 30 mg/kg): 84.2 ng/mL and 115 ng/mL
plasma concentration ([3]; PO 30 mg/kg, 1.00 h, individual mice M7-M9, 30 mg/kg): 145 ng/mL and 55.8 ng/mL and 75.3 ng/mL
plasma concentration ([3]; PO 30 mg/kg, 2.00 h, individual mice M7-M9, 30 mg/kg): 58.6 ng/mL and 16.2 ng/mL and 16.7 ng/mL
plasma concentration ([3]; PO 30 mg/kg, 4.00 h, individual mice M7-M9, 30 mg/kg): 12.7 ng/mL and 5.98 ng/mL and 3.78 ng/mL
plasma concentration ([3]; PO 30 mg/kg, 6.00 h, individual mice M7-M9, 30 mg/kg): 11.3 ng/mL and 7.80 ng/mL
plasma concentration ([3]; PO 30 mg/kg, 24.0 h, individual mice M7-M9): BQL
Tlast ([3]; PO 30 mg/kg, individual mice M7-M9): 6.00 h
AUC0-last [3, 6]: 291 ng·h/mL and 129 ng·h/mL and 145 ng·h/mL
AUC(0-inf) [3, 6]: 158 ng·h/mL and 162 ng·h/mL
AUCExtra [3, 6]: 6.68% and 18.1% and 10.7%
AUMCExtra [3, 6]: 25.1% and 52.3% and 41.3%
Cmax [3, 6]: 84.2 ng/mL and 115 ng/mL
MRT0-inf [3, 6]: 2.96 h and 2.14 h
MRT0-last [3, 6]: 1.72 h and 1.41 h
T1/2 [3, 6]: 1.76 h and 1.55 h
AUCExtra ([3]; PO 30 mg/kg, mean): 11.9%
AUMCExtra ([3]; PO 30 mg/kg, mean): 39.6%
Tlast ([3]; PO 30 mg/kg, mean): 6.00 h
concentration at 0.25 h ([3]; 30 mg/kg, IP 30 mg/kg, 0.250 h, individual mice M4-M6): 242 ng/mL
concentration at 0.25 h ([3]; 30 mg/kg, IP 30 mg/kg, 0.250 h, mean): 285 ng/mL
concentration at 0.5 h ([3]; 30 mg/kg, IP 30 mg/kg, 0.500 h, individual mice M4-M6): 381 ng/mL
concentration at 0.5 h ([3]; 30 mg/kg, IP 30 mg/kg, 0.500 h, mean): 396 ng/mL
concentration at 1 h ([3]; 30 mg/kg, IP 30 mg/kg, 1.00 h, individual mice M4-M6): 443 ng/mL
concentration at 1 h ([3]; 30 mg/kg, IP 30 mg/kg, 1.00 h, mean): 524 ng/mL
